# Experimental data taken from patent publication US9988373B2, “Nitrogen-containing six-membered cyclic derivatives and pharmaceutical composition comprising the same” (SHIONOGI & CO., LTD., priority 2013, dated 2018).
# Biological target: T1, human P2X7 receptor (Homo sapiens, UniProt Q99572, R270H)
# T1 construct: expressed in transfected cells
# T1 sequence (Q99572 1-595 R270H): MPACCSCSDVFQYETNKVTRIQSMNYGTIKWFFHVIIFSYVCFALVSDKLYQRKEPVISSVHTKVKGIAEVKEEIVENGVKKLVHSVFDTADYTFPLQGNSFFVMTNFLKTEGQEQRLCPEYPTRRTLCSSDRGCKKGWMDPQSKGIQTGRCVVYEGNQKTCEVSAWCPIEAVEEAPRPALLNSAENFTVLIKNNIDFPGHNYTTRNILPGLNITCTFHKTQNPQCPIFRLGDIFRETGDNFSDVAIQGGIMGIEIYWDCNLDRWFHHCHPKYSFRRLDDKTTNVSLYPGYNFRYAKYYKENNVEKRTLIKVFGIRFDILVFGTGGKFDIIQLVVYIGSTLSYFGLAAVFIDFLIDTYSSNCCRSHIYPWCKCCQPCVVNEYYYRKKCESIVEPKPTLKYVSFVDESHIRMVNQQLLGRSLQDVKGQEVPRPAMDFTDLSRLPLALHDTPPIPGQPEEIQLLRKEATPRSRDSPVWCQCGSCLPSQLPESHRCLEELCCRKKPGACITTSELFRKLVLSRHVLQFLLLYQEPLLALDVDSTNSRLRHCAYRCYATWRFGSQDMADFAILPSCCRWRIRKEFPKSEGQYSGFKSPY
# Experiment: Evaluation of a human P2X7 receptor inhibitory activity (Yo-Pro uptake, BzATP stimulation, FLIPR TETRA)
# Assay type: cell-based
# Details: antagonistic activity for the human P2X7 receptor, 1321N1 cell transfected with the human P2X7 receptor gene, Yo-Pro fluorescence
# Protocol: Test Example 1 Evaluation of a Human P2X7 Receptor Inhibitory Activity
# Stably expressing cell line (1321N1 cell transfected with the human P2X7 receptor gene (GenBank accession number NM_002562.5 including T606C and G952A SNP)) was used. The cells were seeded in a 384-well microtiter plate at a concentration of 8000 cells/well and cultured in the medium (10% fetal bovine serum, 25 mM HEPES, 1% penicillin and streptomycin in DMEM) for one day at 37° C. under 5% carbon dioxide atmosphere. After replacing with 20 μL of the HBSS buffer (20 mM HEPES. 55.6 mM D-glucose, 1×HBSS(−), pH 7.4-7.5), 15 μL of 17.3 μM Yo-Pro solution in the HBSS buffer was added. The plate was placed in high-throughput cellular screening system FLIPR TETRA (Molecullar Devices, LLC.) and 15 μL of 130 μM BzATP solution in the HBSS buffer was added. Measurement of fluorescence intensity by FLIPR TETRA was started. After eight minutes, 15 μL of DMSO solutions containing different concentrations of the compound of the present invention as prepared by dilution with the HBSS buffer were dispensed to each well through the built-in automatic dispenser, and the measurement of fluorescence intensity was continued for 20 minutes. The maximum fluorescence intensity without the compound of the present invention is calculated as 0% inhibition and the maximum fluorescence intensity when the reference compound was added is calculated as 100% inhibition. Changing values of fluorescence intensity by the compound of the present invention were calculated by difference between maximum and minimum fluorescence intensity for 20 minutes. Inhibition ratios (%) were calculated from the following equation:
# [formula] IC50 was calculated using logistic approximation.
row,SMILES,IC50 [nM]
1,COc1cn(CC#N)c(-c2cccc(C(F)(F)F)c2Cl)nc1=O [II-032],1000
2,CC(=O)Nc1cn(Cc2ccccc2)c(-c2cccc(C(F)(F)F)c2Cl)nc1=O [II-046],180
3,COc1cn(Cc2ccccc2)c(-c2cccc(Cl)c2Cl)nc1=O [II-056],130
4,O=c1ccn(CC2CCCCC2)c(-c2cccc(C(F)(F)F)c2Cl)n1 [II-077],610
5,COC(=O)Nc1cn(Cc2ccccc2)c(-c2cccc(C(F)(F)F)c2Cl)nc1=O [II-053],71
6,COc1cn(Cc2ccccc2)c(C2=CCC3(CC2)CC3)nc1=O [II-073],630
7,O=c1cc(-c2cccc(C(F)(F)F)c2Cl)n(Cc2ccccc2)cn1 [III-001],110
8,COc1cn(Cc2cccc3ccccc23)c(-c2cccc(C(F)(F)F)c2Cl)nc1=O [II-055],20
9,COc1cn(Cc2ccccc2)c(-c2ccc(Cl)cc2Cl)nc1=O [II-082],190
10,O=c1ccn(Cc2ccc(F)cc2)c(-c2cccc(Cl)c2Cl)c1 [Compound I-020],810
11,COc1cn(Cc2ccccc2)c(-c2cccc(C(F)(F)F)c2Cl)cc1=O [Compound I-015],44

# Same assay, conditions: antagonistic activity for the human P2X7 receptor, 1321N1 cell transfected with the human P2X7 receptor gene, Yo-Pro fluorescence, class symbols
row,SMILES,IC50 [nM]
1,COc1cn(Cc2ccccc2)c(-c2cc(Cl)ccc2Cl)nc1=O [II-101],1000 to 10000
2,COc1cn(Cc2ccccc2)c(-c2ccc(Cl)c(Cl)c2)nc1=O [II-084],100 to 500
3,COc1cn(Cc2ccccc2C#N)c(-c2cccc(C(F)(F)F)c2Cl)nc1=O [II-012],100 to 500
4,O=c1ccn(Cc2cccc(-c3cccs3)c2)c(-c2cccc(C(F)(F)F)c2Cl)c1 [Compound I-047],1000 to 10000
5,O=c1ccn(Cc2ccc(F)cc2)c(-c2cccc(C(F)(F)F)c2Cl)c1 [Compound I-017],500 to 1000
6,COc1cn(Cc2ccc(C#N)cc2)c(-c2cccc(C(F)(F)F)c2Cl)nc1=O [II-014],1000 to 10000
7,N#CCn1cc(OCc2ccccc2)c(=O)nc1-c1cccc(C(F)(F)F)c1Cl [II-085],< 50
8,COc1cn(C(C)c2ccccc2)c(-c2cccc(C(F)(F)F)c2Cl)nc1=O (centres unmarked) [II-039],50 to 100
9,COc1cn(Cc2ccccc2)c(-c2cccc(Cl)c2C)nc1=O [II-081],500 to 1000
10,COc1cn(Cc2ccccc2)c(-c2cccc(F)c2F)nc1=O [II-078],500 to 1000
11,O=c1ccn(Cc2ccccc2)c(-c2cccc(Cl)c2Cl)c1 [Compound I-021],500 to 1000
12,COc1cn(Cc2ccccc2C)c(-c2cccc(F)c2)nc1=O [II-062],1000 to 10000
13,COc1cn(Cc2ccccc2C)c(-c2ccc(Cl)cc2)nc1=O [II-060],1000 to 10000
14,CCOc1cn(Cc2ccccc2)c(-c2cccc(C(F)(F)F)c2Cl)cc1=O [Compound I-072],< 50
15,COc1ccccc1Cn1cc(OC)c(=O)nc1-c1cccc(C(F)(F)F)c1Cl [II-087],< 50
16,COc1cn(Cc2cccc3ncccc23)c(-c2cccc(C(F)(F)F)c2Cl)nc1=O [II-052],< 50
17,CS(=O)(=O)c1ccc(Cn2ccc(=O)cc2-c2cccc(C(F)(F)F)c2Cl)cc1 [Compound I-060],1000 to 10000
18,C#CCOc1cn(Cc2ccccc2)c(-c2cccc(C(F)(F)F)c2Cl)nc1=O [II-040],< 50
19,Cc1ccccc1Cn1cc(OCC#N)c(=O)nc1-c1cccc(C(F)(F)F)c1Cl [II-090],< 50
20,O=c1ccn(Cc2ccon2)c(-c2cccc(C(F)(F)F)c2Cl)c1 [Compound I-065],1000 to 10000

row,SMILES,IC50 [nM]
1,O=c1ccn(Cc2ccccc2C(F)(F)F)c(-c2cccc(C(F)(F)F)c2Cl)c1 [Compound I-033],100 to 500
2,COc1cn(Cc2cccnc2C)c(-c2cccc(C(F)(F)F)c2Cl)nc1=O [II-026],50 to 100
3,O=c1ccn(Cc2c(F)cccc2F)c(-c2cccc(C(F)(F)F)c2Cl)c1 [Compound I-054],100 to 500
4,O=c1ccn(Cc2cccc(CO)c2)c(-c2cccc(C(F)(F)F)c2Cl)c1 [Compound I-035],100 to 500
5,COc1ccccc1Cn1ccc(=O)cc1-c1cccc(C(F)(F)F)c1Cl [Compound I-071],100 to 500
6,N#Cc1cccc(Cn2cc(N3CCCC3)c(=O)cc2-c2cccc(C(F)(F)F)c2Cl)c1 [Compound I-004],500 to 1000
7,O=c1ccn(Cc2cccc(Oc3ccccc3)c2)c(-c2cccc(C(F)(F)F)c2Cl)c1 [Compound I-036],500 to 1000
8,CNc1cn(Cc2ccccc2)c(-c2cccc(C(F)(F)F)c2Cl)nc1=O [II-044],100 to 500
9,COc1cn(Cc2cccc(CO)c2)c(-c2cccc(C(F)(F)F)c2Cl)nc1=O [II-019],50 to 100
10,COc1cn(Cc2cccnc2C(F)(F)F)c(-c2cccc(C(F)(F)F)c2Cl)nc1=O [II-094],100 to 500
11,O=c1ccn(Cc2ccc(OCc3ccccc3)cc2)c(-c2cccc(C(F)(F)F)c2Cl)c1 [Compound I-064],1000 to 10000
12,COc1cn(Cc2ccccc2C)c(C2=CCCCC2)nc1=O [II-057],1000 to 10000
13,COc1cccc(-c2nc(=O)c(OC)cn2Cc2ccccc2)c1Cl [II-079],1000 to 10000
14,N#Cc1cn(Cc2ccccc2F)c(-c2cccc(C(F)(F)F)c2Cl)cc1=O [Compound I-002],< 50
15,N#Cc1cccc(Cn2cc(N)c(=O)cc2-c2cccc(C(F)(F)F)c2Cl)c1 [Compound I-006],500 to 1000
16,O=c1ccn(Cc2ccccc2)c(-c2cccc(C(F)(F)F)c2Cl)n1 [II-048],100 to 500
17,O=c1ccn(Cc2ccccn2)c(-c2cccc(C(F)(F)F)c2Cl)c1 [Compound I-058],500 to 1000
18,COc1cn(Cc2ccccc2C)c(-c2ccc(F)cc2)nc1=O [II-063],1000 to 10000
19,COc1cccc(Cn2cc(OC)c(=O)nc2-c2cccc(C(F)(F)F)c2Cl)c1 [II-086],< 50
20,COc1ccc(Cn2ccc(=O)cc2-c2cccc(C(F)(F)F)c2Cl)cc1 [Compound I-040],1000 to 10000

row,SMILES,IC50 [nM]
1,COc1cn(Cc2ccccc2)c(-c2cccc(Cl)c2C(F)(F)F)nc1=O [II-083],50 to 100
2,COc1cn(Cc2ccccc2C)c(-c2cccc(-c3ccccc3)c2)nc1=O [II-068],1000 to 10000
3,COc1cn(Cc2ccccc2SC(F)(F)F)c(-c2cccc(C(F)(F)F)c2Cl)nc1=O [II-098],100 to 500
4,O=c1ccn(Cc2ccc3ccccc3c2)c(-c2cccc(C(F)(F)F)c2Cl)c1 [Compound I-051],500 to 1000
5,Cc1ccccc1Cn1cc(F)c(=O)nc1-c1cccc(C(F)(F)F)c1Cl [II-011],< 50
6,O=c1nc(-c2cccc(C(F)(F)F)c2Cl)n(Cc2ccccc2)cc1Oc1ccccc1 [II-080],50 to 100
7,Cc1ccccc1Cn1cc(C)c(=O)nc1-c1cccc(C(F)(F)F)c1Cl [II-010],< 50
8,O=c1cc(-c2cccc(C(F)(F)F)c2Cl)n(Cc2ccccc2)cc1Br [Compound I-008],100 to 500
9,CCOc1cn(Cc2ccccc2)c(-c2cccc(C(F)(F)F)c2Cl)nc1=O [II-024],50 to 100
10,O=c1cc(-c2cccc(C(F)(F)F)c2Cl)n(Cc2cccc(F)c2)cc1Br [Compound I-010],100 to 500
11,COc1cccc(Cn2cc(Br)c(=O)cc2-c2cccc(C(F)(F)F)c2Cl)c1 [Compound I-009],100 to 500
12,COc1cn(Cc2ccccc2C)c(-c2ccccc2)nc1=O [II-058],1000 to 10000
13,O=c1ccn(Cc2cccc3cccnc23)c(-c2cccc(C(F)(F)F)c2Cl)c1 [Compound I-044],500 to 1000
14,NC(=O)c1cn(Cc2ccccc2)c(-c2cccc(C(F)(F)F)c2Cl)nc1=O [II-038],500 to 1000
15,COc1cn(Cc2ccc(F)cc2)c(-c2cccc(C(F)(F)F)c2Cl)nc1=O [II-004],100 to 500
16,N#Cc1cn(Cc2ccc(F)cc2)c(-c2cccc(C(F)(F)F)c2Cl)nc1=O [II-049],50 to 100
17,O=c1ccn(Cc2cccc(-c3ccccc3)c2)c(-c2cccc(C(F)(F)F)c2Cl)c1 [Compound I-061],1000 to 10000
18,COc1cn(Cc2ccccc2C)c(-c2cccc(C(F)(F)F)c2Cl)nc1=O [II-001],< 50
19,O=c1ccn(Cc2ccc(C(F)(F)F)o2)c(-c2cccc(C(F)(F)F)c2Cl)c1 [Compound I-067],500 to 1000
20,O=c1ccn(Cc2ccccc2)c(-c2cccc(C(F)(F)F)c2Cl)c1 [Compound I-019],100 to 500
